Common to all, as to type: biochemical
One test has as its target T1, PI3Kδ (Homo sapiens, UniProt O00329).
T1 construct: made in house
Nature of the test: TR-FRET enzymatic activity assay, PI3Kδ. As to conditions: Table 2a; same assay.

A further test concerns the target T2, PI3Kβ (Homo sapiens, UniProt P42338).
T2 construct: made in house
The test can be described thus: TR-FRET enzymatic activity assay, PI3Kβ. As to conditions: Table 2a; same assay.

Another test has as its target T3, PI3Kγ (Homo sapiens, UniProt P48736).
T3 construct: made in house
Nature of the test: TR-FRET enzymatic activity assay, PI3Kγ. To be noted: Table 2a; same assay; read-out: PI3Kγ IC50. The method, boiled down: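 Enzymatic activity against the PI3K isoforms was measured using a time-resolved fluorescence resonance energy transfer (TR-FRET) assay.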

SMILES strings stand for the structures.

This note sets out measurements from patent US10308639B2, “Phosphatidylinositol 3-kinase inhibitors” (Gilead Sciences, Inc., priority 2014, dated 2019).

T2 sequence (P42338 whole entry): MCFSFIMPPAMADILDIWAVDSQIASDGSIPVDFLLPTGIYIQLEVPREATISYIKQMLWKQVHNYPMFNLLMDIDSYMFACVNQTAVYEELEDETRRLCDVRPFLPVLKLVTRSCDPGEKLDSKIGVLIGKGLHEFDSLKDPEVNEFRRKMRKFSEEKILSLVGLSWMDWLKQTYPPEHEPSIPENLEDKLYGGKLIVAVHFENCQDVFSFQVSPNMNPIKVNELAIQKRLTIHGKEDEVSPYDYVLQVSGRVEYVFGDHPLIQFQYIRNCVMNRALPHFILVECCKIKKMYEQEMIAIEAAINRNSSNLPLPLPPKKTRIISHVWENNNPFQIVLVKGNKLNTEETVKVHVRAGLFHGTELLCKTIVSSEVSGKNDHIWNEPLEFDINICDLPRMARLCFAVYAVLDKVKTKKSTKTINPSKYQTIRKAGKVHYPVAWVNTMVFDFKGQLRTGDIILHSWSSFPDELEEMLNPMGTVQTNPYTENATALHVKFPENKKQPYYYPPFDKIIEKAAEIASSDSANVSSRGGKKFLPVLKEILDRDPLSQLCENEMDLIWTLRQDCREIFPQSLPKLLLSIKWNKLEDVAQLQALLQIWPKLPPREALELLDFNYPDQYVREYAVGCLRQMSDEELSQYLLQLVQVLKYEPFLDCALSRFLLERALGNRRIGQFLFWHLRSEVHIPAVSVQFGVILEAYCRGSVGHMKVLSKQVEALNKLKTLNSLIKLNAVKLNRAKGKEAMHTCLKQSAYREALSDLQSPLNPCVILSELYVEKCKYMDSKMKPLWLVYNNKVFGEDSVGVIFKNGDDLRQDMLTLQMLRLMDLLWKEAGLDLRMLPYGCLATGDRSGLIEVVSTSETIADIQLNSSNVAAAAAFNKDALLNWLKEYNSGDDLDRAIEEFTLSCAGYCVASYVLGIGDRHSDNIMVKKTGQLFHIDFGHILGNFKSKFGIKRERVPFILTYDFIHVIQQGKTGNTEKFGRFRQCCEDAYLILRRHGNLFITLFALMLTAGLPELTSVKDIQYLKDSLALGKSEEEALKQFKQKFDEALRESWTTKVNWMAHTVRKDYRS
T2 sequence (P27986 whole entry partner): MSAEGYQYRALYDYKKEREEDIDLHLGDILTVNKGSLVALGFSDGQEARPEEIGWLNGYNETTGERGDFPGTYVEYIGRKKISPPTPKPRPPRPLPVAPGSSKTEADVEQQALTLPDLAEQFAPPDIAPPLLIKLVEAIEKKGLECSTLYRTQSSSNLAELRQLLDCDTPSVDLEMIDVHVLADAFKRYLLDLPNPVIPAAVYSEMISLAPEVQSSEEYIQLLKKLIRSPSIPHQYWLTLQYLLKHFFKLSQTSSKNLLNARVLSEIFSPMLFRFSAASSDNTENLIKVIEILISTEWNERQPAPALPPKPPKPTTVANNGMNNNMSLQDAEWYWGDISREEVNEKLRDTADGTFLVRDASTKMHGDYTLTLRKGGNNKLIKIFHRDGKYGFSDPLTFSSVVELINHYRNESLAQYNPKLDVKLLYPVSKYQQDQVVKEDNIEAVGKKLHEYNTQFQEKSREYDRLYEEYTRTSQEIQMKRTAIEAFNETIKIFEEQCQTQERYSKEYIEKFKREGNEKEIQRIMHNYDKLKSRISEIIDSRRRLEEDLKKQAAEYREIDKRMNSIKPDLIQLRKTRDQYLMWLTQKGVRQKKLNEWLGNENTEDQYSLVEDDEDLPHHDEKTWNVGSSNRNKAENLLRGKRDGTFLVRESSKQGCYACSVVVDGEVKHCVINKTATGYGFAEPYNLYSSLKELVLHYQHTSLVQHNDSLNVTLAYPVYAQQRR
T3 sequence (P48736 whole entry): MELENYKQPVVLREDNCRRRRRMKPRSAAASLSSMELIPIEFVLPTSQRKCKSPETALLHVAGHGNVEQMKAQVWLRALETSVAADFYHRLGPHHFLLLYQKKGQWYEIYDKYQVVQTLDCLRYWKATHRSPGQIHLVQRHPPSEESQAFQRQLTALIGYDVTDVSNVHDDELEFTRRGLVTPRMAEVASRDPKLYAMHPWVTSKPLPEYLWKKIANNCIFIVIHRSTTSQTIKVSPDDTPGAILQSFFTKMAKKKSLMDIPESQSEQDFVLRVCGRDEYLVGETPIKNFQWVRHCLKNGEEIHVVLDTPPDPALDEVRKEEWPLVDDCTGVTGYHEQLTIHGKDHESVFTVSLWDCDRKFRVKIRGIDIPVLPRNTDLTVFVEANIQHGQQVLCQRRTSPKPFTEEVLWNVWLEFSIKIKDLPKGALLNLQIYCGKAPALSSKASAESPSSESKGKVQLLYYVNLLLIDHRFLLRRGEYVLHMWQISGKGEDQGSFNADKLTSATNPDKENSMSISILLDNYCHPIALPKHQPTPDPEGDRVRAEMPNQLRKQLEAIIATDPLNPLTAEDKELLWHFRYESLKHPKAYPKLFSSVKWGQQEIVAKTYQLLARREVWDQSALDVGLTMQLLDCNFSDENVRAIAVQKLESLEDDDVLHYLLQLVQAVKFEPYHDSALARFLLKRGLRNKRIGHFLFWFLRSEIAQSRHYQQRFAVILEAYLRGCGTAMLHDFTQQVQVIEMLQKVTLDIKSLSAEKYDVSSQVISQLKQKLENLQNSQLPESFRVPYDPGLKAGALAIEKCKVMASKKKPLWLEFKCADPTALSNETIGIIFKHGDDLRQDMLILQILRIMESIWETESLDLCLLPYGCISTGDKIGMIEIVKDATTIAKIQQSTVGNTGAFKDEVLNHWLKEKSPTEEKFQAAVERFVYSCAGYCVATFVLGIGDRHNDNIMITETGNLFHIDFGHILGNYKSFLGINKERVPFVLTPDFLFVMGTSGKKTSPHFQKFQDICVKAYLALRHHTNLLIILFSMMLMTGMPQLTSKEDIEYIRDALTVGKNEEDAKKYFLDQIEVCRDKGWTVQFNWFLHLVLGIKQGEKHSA
T1 sequence (O00329 whole entry): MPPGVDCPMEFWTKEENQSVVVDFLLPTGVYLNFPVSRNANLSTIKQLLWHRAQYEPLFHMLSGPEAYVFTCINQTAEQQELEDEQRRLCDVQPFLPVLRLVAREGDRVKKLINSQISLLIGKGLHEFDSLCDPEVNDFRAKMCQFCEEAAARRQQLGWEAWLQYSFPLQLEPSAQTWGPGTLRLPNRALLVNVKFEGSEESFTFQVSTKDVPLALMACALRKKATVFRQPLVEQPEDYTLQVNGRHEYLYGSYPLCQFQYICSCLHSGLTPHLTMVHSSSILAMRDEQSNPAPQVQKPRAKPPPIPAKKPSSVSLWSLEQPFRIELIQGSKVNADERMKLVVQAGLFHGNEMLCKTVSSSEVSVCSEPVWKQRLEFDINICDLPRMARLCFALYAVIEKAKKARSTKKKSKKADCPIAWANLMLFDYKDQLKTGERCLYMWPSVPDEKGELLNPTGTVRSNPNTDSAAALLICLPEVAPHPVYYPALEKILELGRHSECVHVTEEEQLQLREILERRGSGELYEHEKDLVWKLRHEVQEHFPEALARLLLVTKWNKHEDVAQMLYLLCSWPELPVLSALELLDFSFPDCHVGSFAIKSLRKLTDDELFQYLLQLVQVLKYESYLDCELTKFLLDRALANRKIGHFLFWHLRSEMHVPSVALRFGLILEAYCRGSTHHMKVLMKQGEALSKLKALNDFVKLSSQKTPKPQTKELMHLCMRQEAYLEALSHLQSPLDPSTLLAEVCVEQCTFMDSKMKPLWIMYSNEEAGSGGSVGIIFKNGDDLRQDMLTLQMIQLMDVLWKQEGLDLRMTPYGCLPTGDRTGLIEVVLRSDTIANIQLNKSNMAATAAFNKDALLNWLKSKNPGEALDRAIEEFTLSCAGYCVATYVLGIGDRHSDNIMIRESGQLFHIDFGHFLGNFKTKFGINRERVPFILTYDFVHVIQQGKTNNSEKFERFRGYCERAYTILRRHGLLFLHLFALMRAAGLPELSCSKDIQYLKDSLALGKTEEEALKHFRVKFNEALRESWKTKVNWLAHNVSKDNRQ
T1 sequence (P27986 whole entry partner): as the sequence (P27986 whole entry partner) above

On to `C[C@H](Nc1nc(N)nc(N)c1C#N)c1nc2cccc(Cl)c2c(=O)n1-c1ccc[nH]1` [Compound 289, (S)-2,4-diamino-6-((1-(5-chloro-4-oxo-3-(1H-pyrrol-2-yl)-3,4-dihydroquinazolin-2-yl)ethyl)amino)pyrimidine-5-carbonitrile], for which the IC50 against PI3Kδ was 0.2 nM; against PI3Kβ, 5 nM; at PI3Kγ it was 12 nM.

As for `C[C@H](Nc1ncnc2scnc12)c1nc2cccc(Cl)c2c(=O)n1-c1ccc[nH]1` [Compound 290, (S)-5-chloro-3-(1H-pyrrol-2-yl)-2-(1-(thiazolo[5,4-d]pyrimidin-7-ylamino)ethyl)quinazolin-4(3H)-one], the IC50 was 0.5 nM against PI3Kδ, 69 nM at PI3Kβ and 72 nM at PI3Kγ.

On to `C[C@H](Nc1ncnn2ccnc12)c1nc2cccc(Cl)c2c(=O)n1-c1ccc[nH]1` [Compound 291, (S)-5-chloro-2-(1-(imidazo[2,1-f][1,2,4]triazin-4-ylamino)ethyl)-3-(1H-pyrrol-2-yl)quinazolin-4(3H)-one], for which the IC50 was 1 nM at PI3Kδ, 140 nM against PI3Kβ and 170 nM on PI3Kγ.
